Measurements taken from paper PMC10714399, “Open Source Antibiotics: Simple Diarylimidazoles Are Potent against Methicillin-Resistant Staphylococcus aureus” (ACS Infectious Diseases, 2023).
≈ marks a conversion by molar mass, not a printed value. Where “and” joins values, the source holds several entries; their conditions need not be identical. Identical values can stand only once. Like-named read-outs stand apart in the source and are kept apart here. One block for each molecule: values may come before it.

How the values were obtained:
[1] = test system: Staphylococcus aureus NCTC 13373 (mecA-positive; methicillin-resistant); test: In vitro antibacterial activity, MIC (UCL School of Pharmacy assay), MRSA; format: cell-based; settings: for MIC: Staphylococcus aureus
In short: (§1)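 Broth microdilution in isosensitest broth; inoculum from overnight tryptone soya agar culture adjusted to A600 0.1 (~1 × 10^8 CFU/mL) then diluted 1:100. Compounds tested as 2-fold series, 32 to 0.03 μg/mL, DMSO at most 2%; vancomycin as quality control.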

[2] = test system: PMM (primary mouse macrophages); test: Toxicity against PMM; format: cell-based
Procedure: (§2) ADME and toxicity for compounds were measured according to procedures outlined in the manuscript submitted in parallel to this one;2 other procedures were used for those compounds analysed by Monash University (in vitro ADME) or UCL (toxicity), both described in the main

[3] = test system: Enterococcus faecalis ATCC 51299 (vanA-positive; vancomycin-resistant); test: In vitro antibacterial activity, MIC (UCL), VRE; format: cell-based
Procedure: Staphylococcus aureus NCTC 13373 (mecA-positive; methicillin-resistant, NCTC 13373) was supplied by the National Collection of Type Cultures (NCTC), Public Health England, United Kingdom. Other organisms, S. aureus ATCC 25923 (methicillin-susceptible) and Enterococcus faecalis ATCC 51299 (vanA-positive; vancomycin-resistant), were obtained from the American Type Culture Collection (ATCC) via LGC Standards, UK. A suspension of each organism was prepared from an overnight plate culture (tryptone soya agar) in phosphate-buffered saline (PBS) and adjusted to an absorbance reading at 600 nm of 0.1, which is approximately equivalent to 1 × 10^8 colony-forming units (CFU) per mL. The cultures were further diluted 1:100 in isosensitest broth (Oxoid, United Kingdom) before 100 μL was used to inoculate each well of a 96-well plate that contained diluted samples of the OSA series. Compounds were evaluated over a 2-fold dilution range from 32 to 0.03 μg/mL. Stocks of the samples were prepared in 100% DMSO at […] before being diluted in isosenstitest broth. The highest concentration of DMSO present was 2%, which has been previously shown not to inhibit the growth of the microorganisms (data not shown). […] Vancomycin was used as a quality control compound.

[4] = test system: MRC-5SV2 (human lung fibroblast cell line); test: Toxicity against MRC-5SV2; format: cell-based
Procedure: as §2

[5] = test system: S. aureus ATCC 25923 (methicillin-susceptible); test: In vitro antibacterial activity, MIC (UCL), MSSA; format: cell-based, Staphylococcus aureus; settings: for MIC: Staphylococcus aureus
In short: as §1

Aqueous solubility = format: physicochemical; settings: thermodynamic from solid
Text: To guide our initial SAR exploration work, we obtained liver microsomal intrinsic clearance data for 5 of the 18 compounds assayed by CO-ADD (Supporting Information - CDCO Report and Supporting Information - Biology). We then acquired intrinsic clearance (CLint), plasma protein binding (PPB), and solubility data on further compounds throughout the SAR campaign (Supporting Information - Biology, Tables S3 and S4). […] The more polar compounds (lower LogD) had reduced PPB and were more metabolically stable.
(§3) Table S4. ADME and Pharmacokinetics: compounds only appearing in the Supplementary […]
(§4) MRSA Aqueous HLM CLint Rat Hep CLint
(§5) Cmpd MIC Solubility Human PPB (%) (µL/min/mg (µL/min/10x6 LogD7.4
(§6) (µg/mL) (µM) protein) cells)
as §2

[6] = Human plasma protein binding (PPB); format: in vitro ADME; settings: human, plasma
Text: (§7) To guide our initial SAR exploration work, we obtained liver microsomal intrinsic clearance data for 5 of the 18 compounds assayed by CO-ADD (Supporting Information - CDCO Report and Supporting Information - Biology). We then acquired intrinsic clearance (CLint), plasma protein binding (PPB), and solubility data on further compounds throughout the SAR campaign (Supporting Information - Biology, Tables S3 and S4).
as §3, §4, §5, §6, §2

[7] = Rat hepatocyte intrinsic clearance; format: in vitro ADME
Text: as §7, §3, §4, §5, §6, §2

[8] = Human liver microsome intrinsic clearance; format: in vitro ADME
Text: as §7, §3, §4, §5, §6, §2

[9] = NEU, read-out: Aqueous Solubility (NEU)
[10] = human plasma, NEU, read-out: Human PPB (NEU) (converted)
[11] = read-out: Human PPB (converted)
[12] = UCL assay, read-out: MSSA MIC (ug/mL) (UCL)
[13] = UCL assay, read-out: MRSA MIC (ug/mL) (UCL)

- MRSA MIC [1]: > 32 µg/mL and 32 µg/mL
- VRE MIC [3]: > 32 µg/mL
SMILES: COc1ccn2c(Nc3ccccc3F)c(-c3cnn(C)c3)nc2c1 [compound 855]
- PMM TC50 [2]: 21.6 µg/mL
- MRC5 TC50 [4]: 21.6 µg/mL

- MRSA MIC [1]: > 32 µg/mL and 32 µg/mL
- VRE MIC [3]: > 32 µg/mL
SMILES: COc1ccn2cc(-c3ccccn3)nc2c1 [compound 856]
- PMM TC50 [2]: 14.4 µg/mL
- MRC5 TC50 [4]: 11.6 µg/mL

- MIC ([5]; read-out: MSSA MIC (UCL)): 16 µg/mL (≈ 49.8 µM)
- MIC ([1]; UCL, read-out: MRSA MIC (UCL)): 16 µg/mL (≈ 49.8 µM)
- solubility (Aqueous solubility; [9]): 116 µM (≈ 37.3 µg/mL)
SMILES: [2H]C([2H])([2H])N(c1ccc(F)cc1)c1c(-c2ccccn2)nc2ccccn12 [OSA_001002]

- MRSA MIC [1]: 16 µg/mL
- VRE MIC [3]: > 32 µg/mL
SMILES: COc1ccn2c(-c3ccc(F)cc3)c(-c3ccccn3)nc2c1 [compound 858]
- PMM TC50 [2]: 2.6 µg/mL
- MRC5 TC50 [4]: 1.2 µg/mL

- MIC ([1]; UCL, read-out: MRSA MIC (UCL)): 8 µg/mL (≈ 23.2 µM)
- fraction unbound [6, 10]: 0.044
- Rat Hep CLint (NEU) ([7]; rat hepatocytes, NEU): 54.1 uL/min/10x6 cells
- HLM CLint (NEU) ([8]; human liver microsomes, NEU): 62.2 uL/min/mg protein
- solubility (Aqueous solubility; [9]): 38 µM (≈ 13.1 µg/mL)
- MIC ([3]; read-out: VRE MIC (UCL)): 32 µg/mL (≈ 92.7 µM)
SMILES: FC(F)(F)Oc1ccc(-c2c(-c3ccccn3)nc3n2CCC3)cc1 [OSA_000868]

- MIC [5, 12]: 8 µg/mL (≈ 23.9 µM)
- MIC [1, 13]: 8 µg/mL (≈ 23.9 µM)
- solubility (Aqueous solubility; NEU, read-out: Aqueous Solubility (uM) (NEU)): 3 µM (≈ 1 µg/mL)
SMILES: COc1ccc(-c2nc3ccccn3c2Nc2ccc(F)cc2)nc1 [OSA_001022]

- MIC ([5]; read-out: MSSA MIC (UCL)): 8 µg/mL (≈ 23 µM)
- MIC ([1]; UCL, read-out: MRSA MIC (UCL)): 8 µg/mL (≈ 23 µM)
- fraction unbound [6, 10]: 0.025
- hepatocyte CLint ([7]; rat hepatocytes, NEU, read-out: Rat Hep CLint (NEU)): > 300 µL/min/1e6 cells
- microsomal CLint ([8]; human liver microsomes, NEU, read-out: HLM CLint (NEU)): 214 µL/min/mg
- solubility (Aqueous solubility; [9]): 26 µM (≈ 9.06 µg/mL)
SMILES: COc1ccnc(-c2nc3ccccn3c2N(C)c2ccc(F)cc2)c1 [OSA_001007]

- MIC [5, 12]: > 32 µg/mL
- MIC [1, 13]: > 32 µg/mL
SMILES: Fc1ccc(NCc2c(-c3ccccn3)nc3ccccn23)cc1 [OSA_001019]
- PMM TC50 ([2]; PMM): 64 µM
- MRC5 TC50 ([4]; MRC5 cells): 64 µM

More lines, now with the values behind:

SMILES: c1ccc(-c2nc3n(c2-c2ccc4sc5ccccc5c4c2)CCC3)nc1 [OSA_000831]
- MIC ([1]; UCL, read-out: MRSA MIC (UCL)): 8 µg/mL (≈ 21.8 µM)
- fraction unbound [6, 10]: 0.0008
- Rat Hep CLint (NEU) ([7]; rat hepatocytes, NEU): 151 uL/min/10x6 cells
- HLM CLint (NEU) ([8]; human liver microsomes, NEU): 42.6 uL/min/mg protein
- solubility (Aqueous solubility; [9]): 3 µM (≈ 1.1 µg/mL)

SMILES: C[S+]([O-])c1ccc(-c2c(-c3ccccn3)nc3n2CCC3)cc1 (stereo not shown) [compound 838]
- MIC ([1]; 16 h, read-out: MRSA MIC): > 32 µg/mL
- MIC ([1]; read-out: MRSA MIC): > 32 µg/mL
- fraction unbound [6, 11]: 0.45
- hepatocyte CLint ([7]; rat, hepatocytes, Figure 4, read-out: Rat Hep CLint): < 1 µL/min/1e6 cells
- microsomal CLint ([8]; human, liver microsomes, read-out: HLM CLint): < 3 µL/min/mg
- solubility (Aqueous solubility; read-out: Aqueous Solubility): 756 µM (≈ 245 µg/mL)
- MIC ([3]; read-out: VRE MIC): > 32 µg/mL

SMILES: Cc1nc2cc(-c3c(-c4ccccn4)nc4n3CCC4)ccc2s1 [OSA_000836]
- MIC ([1]; UCL, read-out: MRSA MIC (UCL)): 32 µg/mL (≈ 96.3 µM)
- fraction unbound [6, 10]: 0.098
- Rat Hep CLint (NEU) ([7]; rat hepatocytes, NEU): 49.1 uL/min/10x6 cells
- HLM CLint (NEU) ([8]; human liver microsomes, NEU): 34.1 uL/min/mg protein
- solubility (Aqueous solubility; [9]): 10 µM (≈ 3.32 µg/mL)

SMILES: Fc1cccc(-c2c(-c3ccccn3)nc3n2CCC3)c1 [OSA_000872]
- MIC ([1]; UCL, read-out: MRSA MIC (UCL)): > 32 µg/mL
- PMM TC50 ([2]; PMM): 54.63 µM
- MIC ([3]; read-out: VRE MIC (UCL)): > 32 µg/mL
- MRC5 TC50 ([4]; MRC5 cells): 7.2 µM

SMILES: N#Cc1ccc(-c2c(-c3ccccn3)nc3n2CCC3)cc1 [compound 975]
- MIC ([1]; 16 h, read-out: MRSA MIC): 4 µg/mL (≈ 14 µM)
- MIC ([1]; read-out: MRSA MIC): 4 µg/mL (≈ 14 µM)
- fraction unbound [6, 11]: 0.29
- PMM TC50 [2]: 18.3 µg/mL
- solubility (Aqueous solubility; read-out: Aqueous Solubility): 38 µM (≈ 10.9 µg/mL)
- MIC ([3]; read-out: VRE MIC): 16 µg/mL (≈ 55.9 µM)
- MRC5 TC50 [4]: 7.4 µg/mL

SMILES: COc1cc(-c2c(-c3ccccn3)nc3n2CCC3)ccc1C#N [OSA_001076]
- MIC [5, 12]: > 32 µg/mL
- MIC [1, 13]: > 32 µg/mL
- PMM TC50 ([2]; PMM): 64 µM
- MRC5 TC50 ([4]; MRC5 cells): 27.86 µM

SMILES: c1ccc(-c2nc3n(c2-c2ccncc2)CCC3)nc1 [compound 1072]
- MSSA MIC [5]: > 32 µg/mL
- MRSA MIC [1]: > 32 µg/mL and 32 µg/mL
- PMM TC50 [2]: 16.8 µg/mL
- MRC5 TC50 [4]: 16.8 µg/mL
